{"source": "patent US20220242827A1", "about": "“PHENYLMETHYLPYRAZOLONE COMPOUND HAVING A NOVEL CRYSTAL FORM, AND METHOD FOR PRODUCING SAME” (SIA EMTEKO HOLDING, priority 2019, published 2022)", "assay_type_in_all_cases": "physicochemical", "key": {"Solubility in water": {"assay": "Solubility in water", "procedure": "The solubility of the obtained samples was checked by dissolving in water with vigorous stirring for 30 minutes at 25° C."}, "[1]": {"assay": "Storage stability in climate chamber at 25° C. and 60% relative humidity for 24 months", "conditions": "for pH: normalization 4.5-5.5; for Quantification: normalization more than 99.0; for Impurity 1: normalization not more than 0.1%; for Sum of impurities: normalization not more than 0.3%; for stability on storage (content of the basic substance, content of impurities, pH): 60% humidity", "procedure": "The improved stability of the resulting polymorphic form was confirmed by experiments in a climate chamber at 25° C. and 60% humidity.\nComparison of Critical Quality Indicators of Known and Novel Polymorphic Forms of FMP After 24 Months of Storage at 25° C. and 60% Relative Humidity"}, "[2]": {"assay": "Electrostatic adhesion model experiment in 316L stainless steel tank", "conditions": "for surface area of the tank covered with the FMP crystals: 316L stainless steel tank, after thorough mixing and release", "procedure": "The following model experiment was performed to test the ability of electrostatic adhesion of the new polymorphic form. The FMP sample was placed in a 316L stainless steel tank, similar to the steel used to make working parts of industrial pharmaceutical equipment. After thorough mixing in the tank, the PMF was released from it and the surface area of the tank covered with the FMP crystals was measured. For the known polymorphic form, this figure was 19.5%, for the new form—12.8%, which is about one third less."}, "[3]": {"conditions": "24 months at 25° C. and 60% relative humidity"}}, "data": [{"smiles": "CC1=NN(c2ccccc2)C(=O)C1", "note": "[Known form of FMP, 1-phenyl-3-methyl-5-pyrazolone, reference compound]", "values": [{"measurement": "solubility in water", "setting": "Solubility in water; dissolving in water with vigorous stirring for 30 minutes at 25° C., listed as known forms", "value": "less than 0.2 mg/ml"}, {"measurement": "Description", "setting": "[1]; 0 months", "value": "White"}, {"measurement": "pH", "setting": "[1]; 0 months", "value": 4.7}, {"measurement": "Quantification", "setting": "[1]; 0 months", "value": 99.8, "unit": "%"}, {"measurement": "Impurity 1", "setting": "[1]; 0 months", "value": 0.02, "unit": "%"}, {"measurement": "Sum of impurities", "setting": "[1]; 0 months", "value": 0.07, "unit": "%"}, {"measurement": "Description", "setting": "[1]; [3]", "value": "White"}, {"measurement": "pH", "setting": "[1]; [3]", "value": 4.6}, {"measurement": "Quantification", "setting": "[1]; [3]", "value": 99.6, "unit": "%"}, {"measurement": "Impurity 1", "setting": "[1]; [3]", "value": 0.08, "unit": "%"}, {"measurement": "Sum of impurities", "setting": "[1]; [3]", "value": 0.18, "unit": "%"}, {"measurement": "surface area of the tank covered with the FMP crystals", "setting": "[2]; listed as known polymorphic form", "value": 19.5, "unit": "%"}]}, {"smiles": "CC1=NN(c2ccccc2)C(=O)C1", "note": "[A new form of FMP, 1-phenyl-3-methyl-5-pyrazolone]", "values": [{"measurement": "solubility (comparison among the samples)", "setting": "Solubility in water; among samples #1 to #6", "value": "best"}, {"measurement": "solubility at 30 min", "setting": "Solubility in water; water, 25 °C, thermodynamic from solid, dissolving in water with vigorous stirring for 30 minutes at 25° C.", "value": 300, "unit": "µg/mL"}, {"measurement": "Description", "setting": "[1]; 0 months", "value": "White"}, {"measurement": "pH", "setting": "[1]; 0 months", "value": 4.8}, {"measurement": "Quantification", "setting": "[1]; 0 months", "value": 99.8, "unit": "%"}, {"measurement": "Impurity 1", "setting": "[1]; 0 months", "value": 0.03, "unit": "%"}, {"measurement": "Sum of impurities", "setting": "[1]; 0 months", "value": 0.09, "unit": "%"}, {"measurement": "Description", "setting": "[1]; [3]", "value": "White"}, {"measurement": "pH", "setting": "[1]; [3]", "value": 4.8}, {"measurement": "Quantification", "setting": "[1]; [3]", "value": 99.7, "unit": "%"}, {"measurement": "Impurity 1", "setting": "[1]; [3]", "value": 0.04, "unit": "%"}, {"measurement": "Sum of impurities", "setting": "[1]; [3]", "value": 0.10, "unit": "%"}, {"measurement": "stability on storage (content of the basic substance, content of impurities, pH)", "setting": "[1]; 24 months, 25° C.", "value": "more stable"}, {"measurement": "stability on storage (content of the basic substance, content of impurities, pH)", "setting": "[1]; 24 months, 25° C., listed as resulting polymorphic form", "value": "did not change its key characteristics"}, {"measurement": "rate of impurity formation", "setting": "[1]; 24 months, 25° C., 60% relative humidity, versus known form", "value": "much lower"}, {"measurement": "surface area of the tank covered with the FMP crystals", "setting": "[2]", "value": 12.8, "unit": "%"}, {"measurement": "electrostatic index (comparison among the samples)", "setting": "[2]; among samples #1 to #6", "value": "best"}]}]}
